# Test results from patent publication US5571836A, “Viral attachment inhibitors” (priority 1995, dated 1996).
# Structures can show the parent of a compound that is named as a salt.
# Assays:
# [1] = test system: influenza virus Philippines/2/82; experiment: Fetuin binding inhibition assay, influenza virus Philippines/2/82; conditions: for A^i (absorbance): 492 nm
# influenza viruses = experiment: Fetuin binding inhibition assay, influenza virus strains overall
# [2] = test system: influenza virus Texas/1/77; experiment: Fetuin binding inhibition assay, influenza virus Texas/1/77; conditions: for A^i (absorbance): 492 nm
# [3] = format: physicochemical; conditions: control solutions without enzyme
# Protocol: Compound (IV) was incubated at 37° C. with Vibrio cholerae neuraminidase (450 U/ml) in 0.1M acetate buffer, pH 5.6, containing 0.9% NaCi and 0.1% CaCl2. Neuraminidase cleavage was determined on aliquots taken at intervals by TLC analysis (Merck silica gel plates in propanol/ethanol/25% aqueous ammonia, 2:2:1). Spots were developed by charring the plates with 3% H3 PO4 at 150° C. and quantitated densitometrically. The results are depicted in The FIGURE (v).
# [4] = test system: influenza virus USSR/90/77; experiment: Fetuin binding inhibition assay, influenza virus USSR/90/77; conditions: for A^i (absorbance): 492 nm
# [5] = test system: influenza virus USSR/2/85; experiment: Fetuin binding inhibition assay, influenza virus USSR/2/85; conditions: for A^i (absorbance): 492 nm
# [6] = test system: influenza virus England/321/77; experiment: Fetuin binding inhibition assay, influenza virus England/321/77; conditions: for A^i (absorbance): 492 nm
# [7] = test system: influenza virus B/USSR/100/83; experiment: Fetuin binding inhibition assay, influenza virus B/USSR/100/83; conditions: for A^i (absorbance): 492 nm
# [8] = test system: influenza virus Chile/1/83; experiment: Fetuin binding inhibition assay, influenza virus Chile/1/83; conditions: for A^i (absorbance): 492 nm
# [9] = test system: influenza virus B/Singapore/222/79; experiment: Fetuin binding inhibition assay, influenza virus B/Singapore/222/79; conditions: for A^i (absorbance): 492 nm
# [10] = test system: influenza virus B/Hong Kong/8/73; experiment: Fetuin binding inhibition assay, influenza virus B/Hong Kong/8/73; conditions: for A^i (absorbance): 492 nm
# [11] = test system: influenza virus Port Chalmers/1/73; experiment: Fetuin binding inhibition assay, influenza virus Port Chalmers/1/73; conditions: for A^i (absorbance): 492 nm
# [12] = test system: influenza virus Taiwan/1/86; experiment: Fetuin binding inhibition assay, influenza virus Taiwan/1/86; conditions: for A^i (absorbance): 492 nm
# influenza virus X-31 = experiment: Fetuin binding inhibition assay, influenza virus X-31; conditions: for A^i (absorbance): 492 nm
# [13] = test system: influenza virus USSR/3/85; experiment: Fetuin binding inhibition assay, influenza virus USSR/3/85; conditions: for A^i (absorbance): 492 nm
# [14] = test system: influenza virus Victoria/3/75; experiment: Fetuin binding inhibition assay, influenza virus Victoria/3/75; conditions: for A^i (absorbance): 492 nm
structure (smiles),measurement,setting,value
"CC(=S)NC1C(O)CC(OCc2ccccc2)(C(=O)O)OC1C(O)C(O)CO [IV, benzyl 3,5-dideoxy5-thioacetamido-α-D-glycero-D-galacto-nonulopyranosidonicacid (sodium salt)]",-lgKd(i),[1]; 1.60 mM sialoside,4.1
same,A^i (absorbance),[1]; 1.60 mM sialoside,0.20
same,-lgKd(i),[1]; .05 mM sialoside,4.0
same,A^i (absorbance),[1]; .05 mM sialoside,0.75
same,-lgKd(i),[1]; .10 mM sialoside,4.4
same,A^i (absorbance),[1]; .10 mM sialoside,0.59
same,-lgKd(i),[1]; .20 mM sialoside,4.1
same,A^i (absorbance),[1]; .20 mM sialoside,0.56
same,-lgKd(i),[1]; .40 mM sialoside,4.1
same,A^i (absorbance),[1]; .40 mM sialoside,0.43
same,-lgKd(i),[1]; .80 mM sialoside,4.1
same,A^i (absorbance),[1]; .80 mM sialoside,0.32
same,-lgKd ± SD,[1]; mean over concentrations,4.1
same,Inhibition of virus strains,influenza viruses,inhibits some virus strains better than its analog
same,-lgKd(i),[2]; 1.60 mM sialoside,4.0
same,A^i (absorbance),[2]; 1.60 mM sialoside,0.35
same,-lgKd(i),[2]; .05 mM sialoside,3.8
same,A^i (absorbance),[2]; .05 mM sialoside,1.0
same,-lgKd(i),[2]; .10 mM sialoside,4.1
same,A^i (absorbance),[2]; .10 mM sialoside,0.9
same,-lgKd(i),[2]; .20 mM sialoside,4.0
same,A^i (absorbance),[2]; .20 mM sialoside,0.83
same,-lgKd(i),[2]; .40 mM sialoside,4.0
same,A^i (absorbance),[2]; .40 mM sialoside,0.70
same,-lgKd(i),[2]; .80 mM sialoside,3.9
same,A^i (absorbance),[2]; .80 mM sialoside,0.55
same,-lgKd ± SD,[2]; mean over concentrations,4.0 ± 0.1
same,Stability in the absence of enzyme,[3],at least 23 hours
same,-lgKd(i),[4]; 1.28 mM sialoside,3.2
same,A^i (absorbance),[4]; 1.28 mM sialoside,0.41
same,-lgKd(i),[4]; 2.56 mM sialoside,3.2
same,A^i (absorbance),[4]; 2.56 mM sialoside,0.23
same,-lgKd(i),[4]; .08 mM sialoside,3.1
same,A^i (absorbance),[4]; .08 mM sialoside,0.94
same,-lgKd(i),[4]; .16 mM sialoside,3.2
same,A^i (absorbance),[4]; .16 mM sialoside,0.84
same,-lgKd(i),[4]; .32 mM sialoside,3.2
same,A^i (absorbance),[4]; .32 mM sialoside,0.73
same,-lgKd(i),[4]; .64 mM sialoside,3.2
same,A^i (absorbance),[4]; .64 mM sialoside,0.6
same,-lgKd ± SD,[4]; mean over concentrations,3.1 ± 0.09
same,-lgKd(i),[5]; 1.28 mM sialoside,2.6
same,A^i (absorbance),[5]; 1.28 mM sialoside,0.23
same,-lgKd(i),[5]; 2.56 mM sialoside,2.5
same,A^i (absorbance),[5]; 2.56 mM sialoside,0.21
same,-lgKd(i),[5]; .64 mM sialoside,2.6
same,A^i (absorbance),[5]; .64 mM sialoside,0.28
same,-lgKd ± SD,[5]; mean over concentrations,2.6 ± 0.06
same,-lgKd(i),[6]; 1.28 mM sialoside,3.7
same,A^i (absorbance),[6]; 1.28 mM sialoside,0.21
same,-lgKd(i),[6]; 2.56 mM sialoside,3.5
same,A^i (absorbance),[6]; 2.56 mM sialoside,0.16
same,-lgKd(i),[6]; .08 mM sialoside,3.4
same,A^i (absorbance),[6]; .08 mM sialoside,0.98
same,-lgKd(i),[6]; .16 mM sialoside,3.7
same,A^i (absorbance),[6]; .16 mM sialoside,0.73
same,-lgKd(i),[6]; .32 mM sialoside,3.7
same,A^i (absorbance),[6]; .32 mM sialoside,0.56
same,-lgKd(i),[6]; .64 mM sialoside,3.7
same,A^i (absorbance),[6]; .64 mM sialoside,0.37
same,-lgKd ± SD,[6]; mean over concentrations,3.6 ± 0.13
same,-lgKd(i),[7]; 1.28 mM sialoside,3.7
same,A^i (absorbance),[7]; 1.28 mM sialoside,0.15
same,-lgKd(i),[7]; 2.56 mM sialoside,3.7
same,A^i (absorbance),[7]; 2.56 mM sialoside,0.08
same,-lgKd(i),[7]; .16 mM sialoside,3.3
same,A^i (absorbance),[7]; .16 mM sialoside,0.52
same,-lgKd(i),[7]; .32 mM sialoside,3.5
same,A^i (absorbance),[7]; .32 mM sialoside,0.40
same,-lgKd(i),[7]; .64 mM sialoside,3.7
same,A^i (absorbance),[7]; .64 mM sialoside,0.25
same,-lgKd ± SD,[7]; mean over concentrations,3.6 ± 0.2
same,-lgKd(i),[8]; 1.28 mM sialoside,3.6
same,A^i (absorbance),[8]; 1.28 mM sialoside,0.36
same,-lgKd(i),[8]; 2.56 mM sialoside,3.5
same,A^i (absorbance),[8]; 2.56 mM sialoside,0.25
same,-lgKd(i),[8]; .08 mM sialoside,3.5
same,A^i (absorbance),[8]; .08 mM sialoside,1.27
same,-lgKd(i),[8]; .16 mM sialoside,3.5
same,A^i (absorbance),[8]; .16 mM sialoside,1.14
same,-lgKd(i),[8]; .32 mM sialoside,3.5
same,A^i (absorbance),[8]; .32 mM sialoside,0.89
same,-lgKd(i),[8]; .64 mM sialoside,3.5
same,A^i (absorbance),[8]; .64 mM sialoside,0.63
same,-lgKd ± SD,[8]; mean over concentrations,3.5 ± 0.04
same,-lgKd(i),[9]; 1.28 mM sialoside,3.6
same,A^i (absorbance),[9]; 1.28 mM sialoside,0.18
same,-lgKd(i),[9]; 2.56 mM sialoside,3.7
same,A^i (absorbance),[9]; 2.56 mM sialoside,0.09
same,-lgKd(i),[9]; .32 mM sialoside,3.2
same,A^i (absorbance),[9]; .32 mM sialoside,0.56
same,-lgKd(i),[9]; .64 mM sialoside,3.5
same,A^i (absorbance),[9]; .64 mM sialoside,0.35
same,-lgKd ± SD,[9]; mean over concentrations,3.5 ± 0.2
same,-lgKd(i),[10]; 1.28 mM sialoside,2.6
same,A^i (absorbance),[10]; 1.28 mM sialoside,0.46
same,-lgKd(i),[10]; 2.56 mM sialoside,2.7
same,A^i (absorbance),[10]; 2.56 mM sialoside,0.32
same,-lgKd(i),[10]; .64 mM sialoside,2.5
same,A^i (absorbance),[10]; .64 mM sialoside,0.54
same,-lgKd ± SD,[10]; mean over concentrations,2.6 ± 0.1
same,-lgKd(i),[11]; 1.60 mM sialoside,3.2
same,A^i (absorbance),[11]; 1.60 mM sialoside,0.25
same,-lgKd(i),[11]; .05 mM sialoside,3.2
same,A^i (absorbance),[11]; .05 mM sialoside,0.55
same,-lgKd(i),[11]; .10 mM sialoside,3.4
same,A^i (absorbance),[11]; .10 mM sialoside,0.51
same,-lgKd(i),[11]; .20 mM sialoside,3.4
same,A^i (absorbance),[11]; .20 mM sialoside,0.47
same,-lgKd(i),[11]; .40 mM sialoside,3.3
same,A^i (absorbance),[11]; .40 mM sialoside,0.42
same,-lgKd(i),[11]; .80 mM sialoside,3.1
same,A^i (absorbance),[11]; .80 mM sialoside,0.40
same,-lgKd ± SD,[11]; mean over concentrations,3.3 ± 0.1
same,-lgKd(i),[12]; 1.28 mM sialoside,3.2
same,A^i (absorbance),[12]; 1.28 mM sialoside,0.33
same,-lgKd(i),[12]; 2.56 mM sialoside,3.2
same,A^i (absorbance),[12]; 2.56 mM sialoside,0.21
same,-lgKd(i),[12]; .08 mM sialoside,3.3
same,A^i (absorbance),[12]; .08 mM sialoside,0.68
same,-lgKd(i),[12]; .16 mM sialoside,3.3
same,A^i (absorbance),[12]; .16 mM sialoside,0.62
same,-lgKd(i),[12]; .32 mM sialoside,3.2
same,A^i (absorbance),[12]; .32 mM sialoside,0.55
same,-lgKd(i),[12]; .64 mM sialoside,3.1
same,A^i (absorbance),[12]; .64 mM sialoside,0.47
same,-lgKd ± SD,[12]; mean over concentrations,3.2 ± 0.08
same,-lgKd(i),influenza virus X-31; 1.28 mM sialoside,3.3
same,A^i (absorbance),influenza virus X-31; 1.28 mM sialoside,0.34
same,-lgKd(i),influenza virus X-31; 2.56 mM sialoside,3.2
same,A^i (absorbance),influenza virus X-31; 2.56 mM sialoside,0.24
same,-lgKd(i),influenza virus X-31; .08 mM sialoside,3.2
same,A^i (absorbance),influenza virus X-31; .08 mM sialoside,0.86
same,-lgKd(i),influenza virus X-31; .16 mM sialoside,3.4
same,A^i (absorbance),influenza virus X-31; .16 mM sialoside,0.72
same,-lgKd(i),influenza virus X-31; .32 mM sialoside,3.3
same,A^i (absorbance),influenza virus X-31; .32 mM sialoside,0.65
same,-lgKd(i),influenza virus X-31; .64 mM sialoside,3.3
same,A^i (absorbance),influenza virus X-31; .64 mM sialoside,0.51
same,-lgKd ± SD,influenza virus X-31; mean over concentrations,3.3 ± 0.08
same,-lgKd(i),[13]; 1.28 mM sialoside,3.6
same,A^i (absorbance),[13]; 1.28 mM sialoside,0.32
same,-lgKd(i),[13]; 2.56 mM sialoside,3.8
same,A^i (absorbance),[13]; 2.56 mM sialoside,0.12
same,-lgKd(i),[13]; .08 mM sialoside,3.8
same,A^i (absorbance),[13]; .08 mM sialoside,1.05
same,-lgKd(i),[13]; .16 mM sialoside,3.8
same,A^i (absorbance),[13]; .16 mM sialoside,0.81
same,-lgKd(i),[13]; .32 mM sialoside,3.8
same,A^i (absorbance),[13]; .32 mM sialoside,0.62
same,-lgKd(i),[13]; .64 mM sialoside,3.7
same,A^i (absorbance),[13]; .64 mM sialoside,0.43
same,-lgKd ± SD,[13]; mean over concentrations,3.8 ± 0.08
same,-lgKd(i),[14]; 1.60 mM sialoside,3.3
same,A^i (absorbance),[14]; 1.60 mM sialoside,0.35
same,-lgKd(i),[14]; .05 mM sialoside,3.3
same,A^i (absorbance),[14]; .05 mM sialoside,0.71
same,-lgKd(i),[14]; .10 mM sialoside,3.3
same,A^i (absorbance),[14]; .10 mM sialoside,0.69
same,-lgKd(i),[14]; .20 mM sialoside,3.5
same,A^i (absorbance),[14]; .20 mM sialoside,0.61
same,-lgKd(i),[14]; .40 mM sialoside,3.4
same,A^i (absorbance),[14]; .40 mM sialoside,0.56
same,-lgKd(i),[14]; .80 mM sialoside,3.4
same,A^i (absorbance),[14]; .80 mM sialoside,0.46
same,-lgKd ± SD,[14]; mean over concentrations,3.4 ± 0.08
